One may read the melting point as the temperature, or range, at which the solid turns liquid.

Take `CC(C)=C[C@H]1CO[C@]23C[C@]4(CO2)C(CCC2[C@@]5(C)CC[C@H](O[C@@H]6OC(CO)[C@@H](O)C(O[C@@H]7OC(CO)[C@@H](O)C(O)C7O)C6O)C(C)(C)C5CC[C@]24C)C3[C@]1(C)O` (stereo partly drawn): the melting point lay within 278 to 282 °C.
Regarding `CC(C)=CC1C[C@@](C)(O[C@@H]2OC[C@H](O)C(O)C2O)C2C3CCC4[C@@]5(C)CC[C@H](O[C@@H]6OC[C@H](O)C(O[C@@H]7OC(CO)[C@@H](O)C(O)C7O)C6O[C@@H]6O[C@@H](CO)C(O)C6O)C(C)(C)C5CC[C@@]4(C)[C@@]34CO[C@@]2(C4)O1` (stereo partly drawn), the melting point lay within 248 to 256 °C.
To `CC(C)=CC1C[C@@](C)(O[C@@H]2OC[C@H](O)C(O)C2O)C2C3CCC4[C@@]5(C)CC[C@H](O[C@@H]6OC(CO)[C@@H](O)C(O[C@@H]7OC(CO)[C@@H](O)C(O)C7O)C6O[C@@H]6O[C@@H](CO)C(O)C6O)C(C)(C)C5CC[C@@]4(C)[C@@]34CO[C@@]2(C4)O1` (stereo partly drawn) belongs 246 to 258 °C.

The values above are taken from patent US8541381B2, “Process for producing enriched fractions containing up to 100% of bacopasaponins from the plant materials of bacopa species” (Laila Impex, priority 2005, dated 2013).
